According to ChEMBL document CHEMBL1144677, “Novel quinazolinone derivatives as 5-HT7 receptor ligands” (Bioorg Med Chem, 2008):

Key:
[1] = target: 5-hydroxytryptamine receptor 2A (Homo sapiens, UniProt P28223)
Description: Binding affinity at 5HT2A receptor

D(2) dopamine receptor = D(2) dopamine receptor (Homo sapiens, UniProt P14416)
Description: Binding affinity at dopamine D2 receptor

[2] = target: T1, 5-hydroxytryptamine receptor 1A (Homo sapiens, UniProt P08908)
T1 sequence (P08908 whole entry): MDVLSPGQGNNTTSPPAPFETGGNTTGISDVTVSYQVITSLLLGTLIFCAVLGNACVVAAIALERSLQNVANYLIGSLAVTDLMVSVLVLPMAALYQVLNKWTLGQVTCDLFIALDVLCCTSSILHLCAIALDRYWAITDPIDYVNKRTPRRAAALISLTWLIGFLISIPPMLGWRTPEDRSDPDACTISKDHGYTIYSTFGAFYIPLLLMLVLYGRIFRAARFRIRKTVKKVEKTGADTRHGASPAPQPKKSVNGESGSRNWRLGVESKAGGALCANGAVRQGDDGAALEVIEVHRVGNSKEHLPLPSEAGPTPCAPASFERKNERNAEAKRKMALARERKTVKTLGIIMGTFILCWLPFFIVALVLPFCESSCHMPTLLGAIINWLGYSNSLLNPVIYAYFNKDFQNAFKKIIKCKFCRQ
Description: Binding affinity at 5HT1A receptor

[3] = target: T2, 5-hydroxytryptamine receptor 2C (Homo sapiens, UniProt P28335)
T2 sequence (P28335 whole entry): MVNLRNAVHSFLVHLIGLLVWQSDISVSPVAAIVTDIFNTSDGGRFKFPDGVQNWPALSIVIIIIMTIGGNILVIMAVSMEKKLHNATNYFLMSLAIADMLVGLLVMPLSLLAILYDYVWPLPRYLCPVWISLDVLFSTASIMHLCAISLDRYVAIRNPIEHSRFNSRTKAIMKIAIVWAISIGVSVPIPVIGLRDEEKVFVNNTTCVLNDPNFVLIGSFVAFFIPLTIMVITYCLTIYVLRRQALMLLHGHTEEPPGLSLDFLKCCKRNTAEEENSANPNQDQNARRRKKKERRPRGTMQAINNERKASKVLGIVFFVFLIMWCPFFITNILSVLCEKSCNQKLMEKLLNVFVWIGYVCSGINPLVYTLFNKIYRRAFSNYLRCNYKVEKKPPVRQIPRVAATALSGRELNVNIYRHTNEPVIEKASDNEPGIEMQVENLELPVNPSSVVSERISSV
Description: Binding affinity at 5HT2C receptor

Sequence of D(2) dopamine receptor (P14416 whole entry): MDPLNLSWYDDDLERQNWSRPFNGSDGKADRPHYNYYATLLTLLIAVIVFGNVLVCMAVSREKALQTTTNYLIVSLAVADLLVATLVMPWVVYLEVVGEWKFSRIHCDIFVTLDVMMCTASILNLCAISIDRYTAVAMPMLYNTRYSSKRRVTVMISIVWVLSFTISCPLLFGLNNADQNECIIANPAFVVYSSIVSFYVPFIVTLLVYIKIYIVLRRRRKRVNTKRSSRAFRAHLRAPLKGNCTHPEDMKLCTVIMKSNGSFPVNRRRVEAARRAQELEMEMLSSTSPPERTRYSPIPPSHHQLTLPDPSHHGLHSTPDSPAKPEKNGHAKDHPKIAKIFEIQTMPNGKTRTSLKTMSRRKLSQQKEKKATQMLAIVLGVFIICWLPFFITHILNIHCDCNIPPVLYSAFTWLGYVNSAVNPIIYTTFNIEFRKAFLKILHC
Sequence of 5-hydroxytryptamine receptor 2A (P28223 whole entry): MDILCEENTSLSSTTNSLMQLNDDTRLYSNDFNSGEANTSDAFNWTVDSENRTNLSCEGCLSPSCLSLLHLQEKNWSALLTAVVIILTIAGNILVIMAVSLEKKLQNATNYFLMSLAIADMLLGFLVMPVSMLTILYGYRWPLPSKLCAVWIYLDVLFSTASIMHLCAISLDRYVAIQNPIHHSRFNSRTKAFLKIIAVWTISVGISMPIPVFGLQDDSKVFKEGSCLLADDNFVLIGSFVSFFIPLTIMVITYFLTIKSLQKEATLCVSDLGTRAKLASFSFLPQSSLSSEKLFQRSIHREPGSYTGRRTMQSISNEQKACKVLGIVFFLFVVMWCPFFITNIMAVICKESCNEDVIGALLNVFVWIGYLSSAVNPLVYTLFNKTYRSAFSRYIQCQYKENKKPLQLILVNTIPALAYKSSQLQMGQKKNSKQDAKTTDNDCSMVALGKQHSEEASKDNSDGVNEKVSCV

Row | SMILES | IC50 [1] [nM] | IC50 (D(2) dopamine receptor) [nM] | IC50 [2] [nM] | IC50 [3] [nM]
1 | Cc1cccc(N2CCN(CCCC(=O)NCc3nc4ccccc4c(=O)n3-c3ccccc3)CC2)c1C | 1100 | 6900 | 500 | 
2 | COc1ccccc1N1CCN(CCCC(=O)NCc2nc3ccc(F)cc3c(=O)n2-c2ccccc2)CC1 | > 10000 | 5300 | 960 | 220
3 | CCOc1ccccc1N1CCN(CCCC(=O)NCc2nc3ccc(F)cc3c(=O)n2-c2ccccc2)CC1 | > 10000 | 1000 | 500 | 1600

Molecules with a lower IC50 [1], results first:

Row | IC50 [1] [nM] | IC50 (D(2) dopamine receptor) [nM] | IC50 [2] [nM] | IC50 [3] [nM] | SMILES
4 | 620 | 6600 | 140 | 1300 | O=C(CCCN1CCN(c2cccc(C(F)(F)F)c2)CC1)NCc1nc2cc(F)ccc2c(=O)n1-c1ccccc1
5 | 420 | 4000 | 220 | 80 | Cc1cccc(N2CCN(CCCC(=O)NCc3nc4ccc(F)cc4c(=O)n3-c3ccccc3)CC2)c1C
